Assay results from US20080051372A1, “METHODS UTILIZING CELL-SIGNALING LYSOPHOSPHOLIPIDS” (THE SCRIPPS RESEARCH INSTITUTE, priority 2006, published 2008).

Key:
[1] = system: TR mouse cerebral cortical immortalized neuroblast cells; test: LPA-like activity bioassay, cell rounding / neurite retraction; format: cell-based; conditions: concentrations from 1 to 100 nM of LPA; 15-30 minutes
Description: LPA-like activity was assayed by measuring morphological changes in TR mouse cerebral cortical immortalized neuroblast cells as previously described (Chun and Jaenisch, Clonal cell lines produced by infection of neocortical neuroblast using multiple oncogenes transduced by retroviruses, 1996, Mol Cell Neurosci, 18:379-383; Hecht et al., Ventricular zone gene-1 (vzg-I) encodes a lysophoshpatidic acid receptor expressed in neurogeneic regions of the developing cerebral cortex, 1996, J Cell Bio, 135:1071-1083, incorporated herein by reference; Ishii et al., Functional comparisons of the lysophosphatidic acid receptors, LPA(A1)IVZG-I/EDG-2, LP(A2)/EDG-4, and LP(A3)/EDG-7 in neuronal cell lines using a retrovirus expression system, 2000, Molecular Pharmacology, 58(5):895-902, incorporated herein by references; Fukushima et al., Lysophosphatidic acid influences the morphology and motility of young, postmitotic cortical neurons, 2002, Mol Cell Neurosci, 20(2):271-282, incorporated herein by reference). […] After this period, cells were fixed with 4% PFA and round cells were counted under phase-contrast optics (A-F). […]
After this period, cells were fixed with 4% PFA and round cells were counted under phase-contrast optics (A-F) The cell number was expressed by percentage of protophasmic, non-round population. […]

[2] = system: cortical neuronal progenitors on retroviral infected LPA1/LPA2 double-null astrocytes; test: retroviral rescue of LPA1/LPA2 double-null astrocytes, co-culture; format: cell-based, mouse
Description: Retroviral vectors expressing LPA1 or LPA2 were reported previously (Ishii et al., Functional comparisons of the lysophosphatidic acid receptors, LP(A1)/VZG-1/EDG-4, and LP(A3)/EDG-7 in neuronal cell lines using a retrovirus expression system, 2000, Mol. Pharmacology, 58:895-902, incorporated herein by reference) as depicted in FIG. 8A. LPA1/LPA2 double-null astrocytes were infected with the epitope-tagged LPA1, LPA2, or empty-vector control retrovirus in 4 μg/ml of polybrene to the media of subconfluent proliferating astrocytes plated in a monolayer. Plates were centrifuged (700 g) at 28° C. for 2 hours, and the astrocytes cultured for 48 hours in fresh media. Astrocytes were serum starved for another 24 hours and then used in the assays. Receptor expression was confirmed by epitope-tagged immunolabeling of GFP-positive cells.
The retroviral infected LPA1/LPA2 double-null astrocytes were treated with LPA. The astrocytes monolayers were co-cultured with cortical neuronal progenitors derived from E14 wild type mice. After 24 hours, cells were immunostained for the neuronal marker, β-tubulin III, and the number of neurons and arborization of their neurites were measured.

[3] = system: astrocyte primary cultures from wild type and LPA double-null newborn mice; test: astrocyte morphology and GFAP immunostaining after LPA; format: cell-based, mouse; conditions: 1 μM LPA for 24 hours; wild type and LPA1 LPA2 null astrocytes
Excerpt: The Generation of Receptor-Null Mice Allows not Only Direct Examination of the systemic roles of LPA receptors in vivo (Contos et al., Requirement of the LPA1 lysophosphatidic acid receptor gene in normal suckling behavior, 2000, PNAS, 97(24):13384-13389, incorporated herein by reference; Contos et al., Characterization of LPA(2) (Edg4) and LPA(I)/LPA(2) (edg2/Edg4) lysophosphatidic acid receptor knockout mice: signaling deficits without obvious pehotypic abnormality attributable to LPA(2), 2002, Mol Cell Bio, 22(19):6921-6929, incorporated herein by reference) but it also contributes for further elucidation of LPA receptor-specific signaling pathways in receptor-null primary cells (Ishii et al., Functional comparisons of the lysophosphatidic acid receptors, LP(A1))/VZG-1/EDG-4, and LP(A3)/EDG-7 in neuronal cell lines using a retrovirus expression system, 2000, Mol. Pharmacology, 58:895-902, incorporated herein by reference). To determine whether LPA effects in the co-culture system are mediated by specific LPA receptors, astrocyte mono layers derived from mice with null mutations in both LPA1 and LPA2 receptors were prepared. Astrocyte primary cultures were prepared from cerebral cortex of wild type and LPA double-null newborn mice. Astrocyte mono layers were kept in DMEM/F12 medium supplemented with 10% fetal calf serum for days until reaching confluence. […]

[4] = system: cortical neuronal progenitors (E14) plated onto cortical astrocyte monolayers; test: neuron-astrocyte co-culture on astrocytes previously treated with LPA; format: cell-based, mouse
Description: All animal protocols were approved by the Animal Research Committee of The Scripps Research Institute, conformed to National Institutes of Health guidelines and public law. Astrocyte primary cultures were prepared from cerebral cortex of newborn mice as previously described (de Sampaio e Spohr et al., Neuron-glia interaction effects on GFAP gene: a novel role for transforming growth factor-31, 2002, Eur J Neurosci, 16:2059-2069, incorporated herein by reference and Sousa et al., Glial fibrillary acidic protein gene promoter is differently modulated by transforming growth factor-beta 1 in astrocytes from distinct brain regions, 2004, Eur Neurosci, 19(7):1721-1730, incorporated by reference in its entirety). Astrocytes cultures were generated from C57B1/6 and Swiss mice. Briefly, after the mice were anesthetized, they were decapitated, brain structures were removed and the meninges were carefully stripped off. Dissociated cells were plated onto glass coverslips in 24 wells-plate (Corning Incorporated, NY), previously coated with polyornithine (1.5 μg/ml, mol. wt. 41,000, Sigma Chemical Co., St. Louis, Mo.), in DMEM/F12 medium supplemented with 10% fetal calf serum (Invitrogen, Carlsbad, Calif.). The cultures were incubated at 37° C. in a humidified 5% CO2, 95% air chamber for 10 days until reaching confluence. For experiments with LPA null mice, embryos from LPA, LPA2 double-heterozygous females (on a mixed background C57B1/6×129SW) were genotyped by PCR using DNA isolated from a small part of the tail (Contos et al., Requirement of the LPA, lysophosphatidic acid receptor gene in normal suckling behavior, 2000, PNAS, 97(24):13384-13389, incorporated herein by reference; Contos et al., Characterization of LPA(2) (Edg4) and LPA(I)/LPA(2) (edg2/Edg4) lysophosphatidic acid receptor knockout mice: signaling deficits without obvious pehotypic abnormality attributable to LPA(2), 2002, Mol Cell Bio, 22(19):6921-6929, incorporated herein by reference).
After reaching confluence, glial mono layers were washed three times with serum-free DMEM/F12 medium and incubated as previously described for an additional day in serum-free medium. Cultures were then treated with 1 μM LPA (Oleoyl-LPA, Avanti Polar Lipids) in DMEM/F12 supplemented with 0.1% fatty-acid free bovine serum albumin (FAFBSA, Sigma) for 4 hours. Control astrocyte carpets were treated with DMEM/F12 supplemented with 0.1% FAFBSA. Medium was then replaced by DMEM/F12 without serum and used as substrate in neuron-astrocyte assays.
For neuronal cultures, timed-pregnant BALB/c females (Simonsen Laboratories), C57B1/6 females or Swiss females were killed by halothane followed by cervical dislocation, and embryos were removed at the day 14 (E14). Cortical progenitors were prepared from cerebral hemispheres from E14 embryos as previously described (Martinez and Gomes, 2002, Neuritogenesis induced by thyroid hormone-treated astrocytes is mediated by epidermal growth factor/mitogen-activated protein kinase-phosphatidylinositol 3-kinase pathways and involves modulation of extracellular matrix proteins, J Biol Chem, 277:49311-49318, incorporated herein by reference; Sousa et al., 2004, Glial fibrillary acidic protein gene promoter is differently modulated by transforming growth factor-beta 1 in astrocytes from distinct brain regions, 2004, Eur J Neurosci 19(7):1721-17302004, incorporated herein by reference). Briefly, cells were freshly dissociated from cerebral hemispheres and 1×10^5 cells plated onto glial monolayer carpets non-treated or previously treated with LPA or LPA-conditioned medium for 4 hours as previously described. In the case of LPA CM assays, the medium was not replaced after 4 hours of treatment; instead it was left until the end of co-culture. Co-cultures were kept for 24 hours at 37° C. in a humidified 5% CO2, 95% air atmosphere. […]

[5] = system: cortical neuronal progenitors plated onto astrocyte monolayers derived from LPA1 LPA2 null mice; test: co-culture on LPA1 LPA2 null astrocytes previously treated with LPA; format: cell-based, mouse; conditions: P>0.05
Description: In order to address the involvement of LPA receptor in LPA-astrocyte effects on neuronal morphogenesis, cortical neuronal progenitors derived from E14 wild type mice were plated onto cortical astrocyte mono layers derived from LPA, LPA2 null mice previously treated with LPA. After 24 hours, cells were immunostained for the neuronal marker, β-tubulin III, and the number of neurons and arborization of their neurites were measured. […] The scale bar in FIG. 8 corresponds to 50 μm.

[6] = system: cultured embryonic hippocampal neurons; conditions: cited from earlier work
[7] = double-null astrocytes infected with either the LPA1 or LPA2 retrovirus, treated with LPA
[8] = neurons plated onto LPA-treated astrocytes, P<0.05

| Substance | rounding of TR cells [1] | prevalence of greater than two neurites/neurons [2, 7] | β-tubulin III cells [2, 7] | neuronal differentiation ([2]; double-null astrocytes infected with empty vector control virus (SOO3), primed with LPA) | astrocyte morphology [3] | number of caspase positive cells (activated caspase-3) ([4]; after 24 hours of coculture, control vs treated cultures, P>0.05) | increase in the number of β-tubulin III positive cells ([4]; astrocytes treated with 1 μM LPA for 4 hours, 24 hours co-culture, vs control astrocytes, P<0.05) | decrease in the number of aneuritic neurons [4, 8] | neurons extending three or more neurites [4, 8] | number of neurons with two neurites [4, 8] | total number of cells ([4]; progenitor cells plated onto LPA-astrocyte monolayers, P>0.05) | neuronal population ([5]; LPA1 LPA2 null astrocytes treated with LPA, 24 hours) | neuronal death ([5]; treated vs non-treated LPA1 LPA2 null astrocytes) | neurite outgrowth [6] |
| --- | --- | --- | --- | --- | --- | --- | --- | --- | --- | --- | --- | --- | --- | --- |
| Oleoyl-LPA | induced rounding | increased prevalence | increased | did not result in an increase | did not affect astrocyte morphology | no difference | 41% | 64% | dramatic increase | significant increase | not altered | did not affect neuronal population | did not differ |  |
| cyclic phosphatidic acid [cPA] |  |  |  |  |  |  |  |  |  |  |  |  |  | promoted neurite outgrowth |
